Tests used:
[1] = molecular target: Beta-2 adrenergic receptor (Homo sapiens, UniProt P07550); experiment: DRUGMATRIX: Adrenergic beta2 radioligand binding (ligand: [3H] CGP-12177); format: cell membranes, CHO, Membrane; conditions: cho; Not Active = under 50% inhibition at 10 µM
Carbonic anhydrase 2 = Carbonic anhydrase 2 (Homo sapiens, UniProt P00918); experiment: DRUGMATRIX: Carbonic Anhydrase II enzyme inhibition (substrate: 4-Nitrophenyl acetate (4-NPA)); format: tissue-based; conditions: erythrocyte; Not Active = under 50% inhibition at 10 µM
[2] = DRUGMATRIX: Interleukin IL-1 radioligand binding (ligand: [125I] interleukin 1beta); format: cell membranes, Membrane; conditions: nih3t3; Not Active = under 50% inhibition at 10 µM
[3] = molecular target: T1, Neuropeptide Y receptor type 1 (Homo sapiens, UniProt P25929); format: cell membranes, Membrane; conditions: sk-n-mc; further: in other assays of this panel Not Active means under 50% inhibition at 10 µM
T1 sequence (P25929 whole entry): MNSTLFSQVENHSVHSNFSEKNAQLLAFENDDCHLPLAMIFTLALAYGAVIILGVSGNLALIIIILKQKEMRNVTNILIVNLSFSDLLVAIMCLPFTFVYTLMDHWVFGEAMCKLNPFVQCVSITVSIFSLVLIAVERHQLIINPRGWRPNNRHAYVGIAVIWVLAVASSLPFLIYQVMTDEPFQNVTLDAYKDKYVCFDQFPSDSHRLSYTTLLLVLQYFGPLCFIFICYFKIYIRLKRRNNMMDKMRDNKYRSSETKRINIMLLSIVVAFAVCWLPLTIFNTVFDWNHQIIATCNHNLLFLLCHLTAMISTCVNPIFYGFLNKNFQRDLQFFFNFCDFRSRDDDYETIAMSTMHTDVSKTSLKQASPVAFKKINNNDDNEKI

[4] = DRUGMATRIX: Phosphodiesterase PDE4 enzyme inhibition (substrate: [3H]cAMP + cAMP); conditions: u-937, Not Active = under 50% inhibition at 10 µM
[5] = molecular target: Mitogen-activated protein kinase 14 (Homo sapiens, UniProt Q16539); design: species or system Escherichia coli;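 further: inhibition of p38alpha enzyme activity in a biochemical kinase assay, with myelin basic protein serving as substrate; in other assays of this panel Not Active means under 50% inhibition at 10 µM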
Sequence of Mitogen-activated protein kinase 14 (Q16539 whole entry): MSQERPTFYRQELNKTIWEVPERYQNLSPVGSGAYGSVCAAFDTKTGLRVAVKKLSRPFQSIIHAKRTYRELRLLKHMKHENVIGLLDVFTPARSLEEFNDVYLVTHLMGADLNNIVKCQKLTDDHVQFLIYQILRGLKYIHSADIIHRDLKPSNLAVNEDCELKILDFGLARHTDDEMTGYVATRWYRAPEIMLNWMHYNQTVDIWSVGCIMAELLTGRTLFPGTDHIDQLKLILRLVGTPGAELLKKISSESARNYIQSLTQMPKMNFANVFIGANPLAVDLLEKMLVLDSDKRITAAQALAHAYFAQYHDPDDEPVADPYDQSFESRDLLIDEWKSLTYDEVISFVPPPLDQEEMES

Estrogen receptor beta = Estrogen receptor beta (Homo sapiens, UniProt Q92731); conditions: sf9; further: in other assays of this panel Not Active means under 50% inhibition at 10 µM
Sequence of Estrogen receptor beta (Q92731 whole entry): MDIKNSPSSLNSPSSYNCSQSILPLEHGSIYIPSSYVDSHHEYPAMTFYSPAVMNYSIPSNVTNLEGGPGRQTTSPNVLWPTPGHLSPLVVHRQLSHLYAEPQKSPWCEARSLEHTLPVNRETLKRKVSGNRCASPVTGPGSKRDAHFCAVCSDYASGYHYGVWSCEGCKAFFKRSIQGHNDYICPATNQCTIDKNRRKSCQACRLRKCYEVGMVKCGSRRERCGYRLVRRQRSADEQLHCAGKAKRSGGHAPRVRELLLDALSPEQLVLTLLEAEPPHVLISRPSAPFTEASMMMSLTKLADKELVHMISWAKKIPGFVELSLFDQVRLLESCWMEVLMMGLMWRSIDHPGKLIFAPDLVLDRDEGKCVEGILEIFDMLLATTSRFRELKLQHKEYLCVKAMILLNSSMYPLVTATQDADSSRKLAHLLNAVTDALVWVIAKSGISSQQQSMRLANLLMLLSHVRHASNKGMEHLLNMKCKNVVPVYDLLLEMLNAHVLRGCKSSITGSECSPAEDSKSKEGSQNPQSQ

Glucocorticoid receptor = molecular target: T2, Glucocorticoid receptor (Homo sapiens, UniProt P04150); conditions: hela s3; further: in other assays of this panel Not Active means under 50% inhibition at 10 µM
T2 sequence (P04150 whole entry): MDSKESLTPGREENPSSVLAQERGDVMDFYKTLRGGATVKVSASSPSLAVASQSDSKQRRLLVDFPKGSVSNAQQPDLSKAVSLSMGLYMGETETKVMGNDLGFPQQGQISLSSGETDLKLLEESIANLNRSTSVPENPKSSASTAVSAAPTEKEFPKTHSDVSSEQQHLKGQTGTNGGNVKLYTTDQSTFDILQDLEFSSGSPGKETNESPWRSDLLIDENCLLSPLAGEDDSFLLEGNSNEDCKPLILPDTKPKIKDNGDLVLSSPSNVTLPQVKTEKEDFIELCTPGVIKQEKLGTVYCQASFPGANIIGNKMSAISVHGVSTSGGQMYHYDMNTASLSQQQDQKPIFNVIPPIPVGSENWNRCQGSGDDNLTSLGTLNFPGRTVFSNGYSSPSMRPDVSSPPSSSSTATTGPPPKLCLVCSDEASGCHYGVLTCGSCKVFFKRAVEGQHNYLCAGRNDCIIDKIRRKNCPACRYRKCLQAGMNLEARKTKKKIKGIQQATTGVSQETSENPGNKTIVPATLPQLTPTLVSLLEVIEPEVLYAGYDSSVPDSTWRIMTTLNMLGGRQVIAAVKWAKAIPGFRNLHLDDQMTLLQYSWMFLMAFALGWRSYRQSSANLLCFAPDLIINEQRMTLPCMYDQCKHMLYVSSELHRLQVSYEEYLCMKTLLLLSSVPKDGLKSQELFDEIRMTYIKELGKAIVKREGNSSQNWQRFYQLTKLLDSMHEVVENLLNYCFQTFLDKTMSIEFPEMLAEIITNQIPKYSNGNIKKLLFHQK

Sequence of Beta-2 adrenergic receptor (P07550 whole entry): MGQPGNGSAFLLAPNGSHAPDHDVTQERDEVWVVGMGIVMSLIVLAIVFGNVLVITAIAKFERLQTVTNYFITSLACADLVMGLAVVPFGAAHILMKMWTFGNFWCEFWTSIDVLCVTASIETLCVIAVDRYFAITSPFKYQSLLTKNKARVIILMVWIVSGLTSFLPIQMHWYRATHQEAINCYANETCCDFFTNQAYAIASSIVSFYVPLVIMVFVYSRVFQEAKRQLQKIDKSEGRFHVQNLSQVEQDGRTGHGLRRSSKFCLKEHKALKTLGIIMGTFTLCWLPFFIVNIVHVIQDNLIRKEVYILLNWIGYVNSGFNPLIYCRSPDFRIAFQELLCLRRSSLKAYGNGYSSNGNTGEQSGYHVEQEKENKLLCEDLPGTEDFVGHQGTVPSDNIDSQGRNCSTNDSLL

Structure (SMILES)	IC50 [1]	IC50 (Carbonic anhydrase 2)	IC50 [2]	Ki [2]	IC50 [3]	IC50 [4]	Ki [4]	IC50 [5]	IC50 (Estrogen receptor beta)	IC50 (Glucocorticoid receptor)	IC50 ([5]; read-out: IC50) [nM]	IC50 ([4]; read-out: IC50) [µM]
CN(C)[C@@H]1C(O)=C(C(N)=O)C(=O)[C@@]2(O)C(O)=C3C(=O)c4c(O)ccc(Cl)c4[C@@](C)(O)[C@H]3C[C@@H]12 [CHLORTETRACYCLINE]	Not Active	Not Active	Not Active	Not Active	Not Active	Not Active	Not Active	Not Active	Not Active	Not Active		
O=C1CN=C(c2ccccc2Cl)c2cc([N+](=O)[O-])ccc2N1 [CLONAZEPAM]	Not Active	Not Active	Not Active	Not Active	Not Active	Not Active	Not Active	Not Active	Not Active	Not Active		
C[C@@H]1CC[C@@]2(OC1)O[C@H]1[C@@H](O)[C@H]3[C@@H]4CC[C@H]5C[C@@H](O[C@@H]6O[C@H](CO)[C@H](O[C@@H]7O[C@H](CO)C(O)[C@H](O[C@@H]8OC[C@@H](O)[C@H](O)[C@H]8O)[C@H]7O[C@@H]7O[C@H](CO)[C@H](O)[C@H](O[C@@H]8O[C@H](CO)[C@@H](O)[C@H](O)[C@H]8O)[C@H]7O)[C@H](O)[C@H]6O)[C@H](O)C[C@]5(C)[C@H]4CC[C@]3(C)[C@H]1[C@@H]2C (some centres undefined) [DIGITONIN]	Not Active	Not Active	Not Active	Not Active	Not Active	Not Active	Not Active	Not Active	Not Active	Not Active		
C[C@H]1O[C@@H](n2cc(F)c(=O)[nH]c2=O)[C@H](O)[C@@H]1O [DOXIFLURIDINE]	Not Active	Not Active	Not Active	Not Active	Not Active	Not Active	Not Active	Not Active	Not Active	Not Active		
Cn1c(=O)c2c(ncn2CC(O)CO)n(C)c1=O (centres undefined) [DYPHYLLINE]	Not Active	Not Active	Not Active	Not Active	Not Active	Not Active	Not Active	Not Active	Not Active	Not Active		
C[C@@H](CO)NC(=O)[C@@H]1C=C2c3cccc4[nH]cc(c34)C[C@H]2N(C)C1 [ERGONOVINE]	Not Active	Not Active	Not Active	Not Active	Not Active	Not Active	Not Active	Not Active	Not Active	Not Active		
COC(=O)CCc1ccc(OCC(O)CNC(C)C)cc1 (centres undefined) [ESMOLOL]	Not Active	Not Active	Not Active	Not Active	Not Active	Not Active	Not Active	Not Active	Not Active	Not Active		
C#C[C@]1(OC(C)=O)CC[C@H]2[C@@H]3CCC4=C[C@@H](OC(C)=O)CC[C@@H]4[C@H]3CC[C@@]21C [ETHYNODIOL DIACETATE]	Not Active	Not Active	Not Active	Not Active	Not Active	Not Active	Not Active	Not Active	Not Active	Not Active		
COc1ccc2c3c1O[C@H]1C[C@@H](O)C=C[C@@]31CCN(C)C2 [GALANTAMINE]	Not Active	Not Active	Not Active	Not Active	Not Active	Not Active	Not Active	Not Active	Not Active	Not Active		
Nc1ccn([C@@H]2O[C@H](CO)[C@@H](O)C2(F)F)c(=O)n1 [GEMCITABINE]	Not Active	Not Active	Not Active	Not Active	Not Active	Not Active	Not Active	Not Active	Not Active	Not Active		
Oc1c(Cl)cc(Cl)c(Cl)c1Cc1c(O)c(Cl)cc(Cl)c1Cl [HEXACHLOROPHENE]	Not Active	Not Active	Not Active	Not Active	Not Active	Not Active	Not Active		Not Active	Not Active	87.6	
COC1=C(OC)C(=O)C(CCCCCCCCCCO)=C(C)C1=O [IDEBENONE]	Not Active	Not Active	Not Active	Not Active	Not Active	Not Active	Not Active	Not Active	Not Active	Not Active		
CC(C)NNC(=O)c1ccncc1 [IPRONIAZID]	Not Active	Not Active	Not Active	Not Active	Not Active	Not Active	Not Active	Not Active	Not Active	Not Active		
Cc1c(OCC(F)(F)F)ccnc1C[S+]([O-])c1nc2ccccc2[nH]1 (centres undefined) [LANSOPRAZOLE]	Not Active	Not Active	Not Active	Not Active	Not Active	Not Active	Not Active	Not Active	Not Active	Not Active		
O=c1cc(N2CCOCC2)oc2c(-c3ccccc3)cccc12 [LY-294002]	Not Active	Not Active	Not Active	Not Active	Not Active			Not Active	Not Active	Not Active		10.4
COc1ccc2[nH]cc(CCNC(C)=O)c2c1 [MELATONIN]	Not Active	Not Active	Not Active	Not Active	Not Active	Not Active	Not Active	Not Active	Not Active	Not Active		
NC(=O)C[S+]([O-])C(c1ccccc1)c1ccccc1 (centres undefined) [MODAFINIL]	Not Active	Not Active	Not Active	Not Active	Not Active	Not Active	Not Active	Not Active	Not Active	Not Active		
CCN(CC)CCOCCC1=CCC2CC1C2(C)C (centres undefined) [MYRTECAINE]	Not Active	Not Active	Not Active	Not Active	Not Active	Not Active	Not Active	Not Active	Not Active	Not Active		
O=C(O)c1cccnc1Nc1cccc(C(F)(F)F)c1 [NIFLUMIC ACID]	Not Active	Not Active	Not Active	Not Active	Not Active	Not Active	Not Active	Not Active	Not Active	Not Active		
O=C(N/N=C/c1ccc([N+](=O)[O-])o1)c1cc([N+](=O)[O-])cc([N+](=O)[O-])c1O [NIFURSOL]	Not Active	Not Active	Not Active	Not Active	Not Active	Not Active	Not Active	Not Active	Not Active	Not Active		
COC(=O)Nc1nc2ccc(C(=O)c3cccs3)cc2[nH]1 [NOCODAZOLE]	Not Active	Not Active	Not Active	Not Active	Not Active	Not Active	Not Active	Not Active	Not Active	Not Active		

— ChEMBL document CHEMBL1909046, “DrugMatrix in vitro pharmacology data”
